Source: patent publication US20120004166A1, “ARYLOXYALKYLENE-SUBSTITUTED HYDROXYPHENYLHEXYNOIC ACIDS, PROCESS FOR PREPARATION THEREOF AND USE THEREOF AS A MEDICAMENT” (SANOFI, priority 2010, published 2012)

What follows are molecules tested against T1, GPCR GPR40 (Rattus norvegicus, UniProt Q8K3T4) (assay: In vitro FLIPR assay with recombinant cells which express the GPCR GPR40). Conditions: recombinant HEK293 cells expressing rat GPR40; agonist-induced change in intracellular Ca2+ (Fluo-4, FLIPR); 100% = 10 μM linoleic acid.
T1 construct: expressed in transfected cells; host or cells: HEK293
Type: cell-based
Method: In Vitro FLIPR Assay with Recombinant Cells which Express the GPCR GPR40
Function-testing assays were performed by means of the FLIPR technique (“Fluorescence Imaging Plate Reader”, Molecular Devices Corp.). To this end, agonist-induced changes in the intracellular concentration of Ca^2+ were determined in recombinant HEK293 cells which expressed the GPCR GPR40 (species: rat). For the studies, cells were sown into 96-well microtiter plates (60 000 cells/well) and left to grow overnight. The medium was removed and the cells were incubated in buffer which contained the fluorescent dye Fluo-4. After this loading with dye, the cells were washed, test substance was added and changes in the intracellular Ca^2+ concentration were measured in the FLIPR unit. Results were presented as the percentage change relative to the control (0%: no test substance added; 100%: 10 μM reference agonist linoleic acid added) and used to calculate dose/effect curves, and EC50 values were determined.

T1 sequence (Q8K3T4 whole entry): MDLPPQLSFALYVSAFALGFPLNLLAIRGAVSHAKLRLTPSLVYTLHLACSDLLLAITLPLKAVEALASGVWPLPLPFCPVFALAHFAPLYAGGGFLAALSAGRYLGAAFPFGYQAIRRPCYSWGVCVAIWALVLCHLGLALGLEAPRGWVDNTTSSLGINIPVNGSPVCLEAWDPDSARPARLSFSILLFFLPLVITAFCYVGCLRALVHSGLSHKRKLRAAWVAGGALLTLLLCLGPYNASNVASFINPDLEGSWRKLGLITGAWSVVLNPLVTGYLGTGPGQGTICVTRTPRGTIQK

| Compound | EC50 [nM] |
| --- | --- |
| CC#CC(CC(=O)O)c1ccc(OCC(CCC)COc2cccc(C(C)(C)C)c2)cc1 (stereo not drawn) [Example 45, 3-{4-[2-(3-tert-Butylphenoxymethyl)pentyloxy]phenyl}hex-4-ynoic acid] | 6850 |
| CC#CC(CC(=O)O)c1ccc(OCC(COc2ccc(C(F)(F)F)cc2)c2ccccc2)cc1 (stereo not drawn) [Example 46, 3-{4-[2-Phenyl-3-(4-trifluoromethylphenoxy)propoxy]phenyl}hex-4-ynoic acid] | 8490 |
| CC#CC(CC(=O)O)c1ccc(OCC(COc2cccc(C(C)(C)C)c2)c2ccccc2)cc1 (stereo not drawn) [Example 47, 3-{4-[3-(3-tert-Butylphenoxy)-2-phenylpropoxy]phenyl}hex-4-ynoic acid] | 8740 |
| CC#CC(CC(=O)O)c1ccc(OCC(COc2ccc(C(F)(F)F)cc2Cl)OCc2ccccc2)cc1 (stereo not drawn) [Example 48, 3-{4-[2-Benzyloxy-3-(2-chloro-4-trifluoromethylphenoxy)propoxy]phenyl}hex-4-ynoic acid] | 7500 |
| CC#CC(CC(=O)O)c1ccc(OCC(CO)COc2ccc(C#N)c(Cl)c2)cc1 (stereo not drawn) [Example 49, 3-{4-[3-(3-Chloro-4-cyanophenoxy)-2-hydroxymethylpropoxy]phenyl}hex-4-ynoic acid] | 150 |
| CC#CC(CC(=O)O)c1ccc(OCC(COC)COc2ccc(C#N)c(Cl)c2)cc1 (stereo not drawn) [Example 50, 3-{4-[3-(3-Chloro-4-cyanophenoxy)-2-methoxymethylpropoxy]phenyl}hex-4-ynoic acid] | 550 |

The next lines start with the values.

| EC50 [nM] | Compound |
| --- | --- |
| 2400 | CC#CC(CC(=O)O)c1ccc(OCC(COCC2CC2)COc2ccc(C#N)c(Cl)c2)cc1 (stereo not drawn) [Example 51, 3-{4-[3-(3-Chloro-4-cyanophenoxy)-2-cyclopropylmethoxymethylpropoxy]phenyl}hex-4-ynoic acid] |
| 990 | CC#CC(CC(=O)O)c1ccc(OCC(O)COc2ccc(C(F)(F)F)cc2Cl)cc1 (stereo not drawn) [Example 52, 3-{4-[3-(2-Chloro-4-trifluoromethylphenoxy)-2-hydroxypropoxy]phenyl}hex-4-ynoic acid] |
| 200 | CC#CC(CC(=O)O)c1ccc(OCC(COc2ccc(C(F)(F)F)cc2Cl)OC)cc1 (stereo not drawn) [Example 53, 3-{4-[3-(2-chloro-4-trifluoromethylphenoxy)-2-methoxypropoxy]phenyl}hex-4-ynoic acid] |
